Measured values: patent US20190327965A1, “AGENTS AND METHODS FOR TREATMENT OF PATHOGENS” (Hexima Limited, priority 2014, published 2019)
Read-outs that look alike come from different tables or passages of the source. Bridge positions count the residues as written; N and C are the ends. Peptide text beside a SMILES is read from it.

Assays:
[1] = tested on: Colletotrichum graminicola
Saccharomyces cerevisiae = experiment: Growth inhibition by hairpin peptide alone, Saccharomyces cerevisiae; assay type: cell-based; settings: hairpin peptide on its own
Excerpt: Some α-hairpinin and β-hairpin peptides show efficacy on their own against pathogens at a concentration higher than the concentration used in a combination with a plant defensin.

[2] = tested on: Fusarium graminearum (Fgr); assay type: cell-based; parameters: relative uptake of SYTOX green: reference not given here
[3] = tested on: Fusarium oxysporum f. sp. vasinfectum (Fov); assay type: cell-based; parameters: relative uptake of SYTOX green: reference not given here

| Compound | IC50 (Saccharomyces cerevisiae) [µM] | Permeability index [2] | relative uptake of SYTOX green [2] | Permeability index [3] | relative uptake of SYTOX green [3] | also measured |
| --- | --- | --- | --- | --- | --- | --- |
| CC[C@H](C)[C@@H]1NC(=O)[C@H](CCCCN)NC(=O)[C@H]([C@@H](C)CC)NC(=O)[C@H](CCC(N)=O)NC(=O)[C@H](CCCNC(=N)N)NC(=O)[C@@H](NC(=O)[C@@H](NC(=O)[C@H](CO)NC(=O)[C@@H](N)CCCNC(=N)N)C(C)C)CSSC[C@@H](C(=O)N[C@H](C(=O)N[C@@H](CC(N)=O)C(=O)N[C@@H](CCCNC(=N)N)C(=O)N2CCC[C@H]2C(=O)N[C@@H](Cc2ccc(O)cc2)C(=O)O)[C@@H](C)O)NC(=O)[C@H](CCCCN)NC(=O)[C@H](Cc2ccc(O)cc2)NC(=O)[C@H](Cc2ccc(O)cc2)NC(=O)[C@@H]2CSSC[C@H](NC1=O)C(=O)N[C@@H](CCCNC(=N)N)C(=O)N[C@@H](CCCNC(=N)N)C(=O)N[C@@H](CCCNC(=N)N)C(=O)NCC(=O)NCC(=O)N2 [Androctonin] (H-RSVCRQIKICRRRGGCYYKCTNRPY-OH; disulfide 4-20, 10-16 (inferred); N-terminus and C-terminus assumed) |  |  |  |  |  | IC50 (Candida albicans): 7 µM; IC50 (Trichophyton rubrum): 1 µM; IC50 [1]: 13 µM; IC50 (Fusarium graminearum): 7 µM |
| C[C@@H](O)[C@@H]1NC(=O)[C@H](CCC(N)=O)NC(=O)[C@@H]2CSSC[C@H](NC(=O)[C@H](CCC(N)=O)NC(=O)[C@H](CCCNC(=N)N)NC(=O)[C@H](CCC(N)=O)NC(=O)[C@H](CCCNC(=N)N)NC(=O)[C@H](CCC(=O)O)NC(=O)[C@@H]3CCCN3C(=O)[C@H](CO)NC(=O)[C@H](CCC(N)=O)NC(=O)[C@H](CCC(=O)O)NC(=O)[C@H](CCC(N)=O)NC1=O)C(=O)N[C@@H](CCC(N)=O)C(=O)N[C@@H](CCC(N)=O)C(=O)N[C@@H](CCCNC(=N)N)C(=O)N[C@H](C(=O)N[C@@H](CCC(=O)O)C(=O)N[C@@H](CCCNC(=N)N)C(=O)N[C@@H](CCC(N)=O)C(=O)N[C@@H](Cc1ccc(O)cc1)C(=O)N[C@@H](CCCCN)C(=O)N[C@@H](CCC(=O)O)C(=O)O)CSSC[C@H](NC(=O)[C@H](CCCNC(=N)N)NC(=O)[C@H](Cc1c[nH]cn1)NC(=O)[C@H](Cc1ccc(O)cc1)NC(=O)[C@H](CCC(N)=O)NC(=O)[C@H](CCC(N)=O)NC(=O)[C@H](CCC(N)=O)NC(=O)[C@@H]1CCCN1C(=O)[C@@H](N)CC(=O)O)C(=O)N[C@@H](CCC(N)=O)C(=O)N[C@@H](CCCNC(=N)N)C(=O)N[C@@H](CCCNC(=N)N)C(=O)N2 [Cil_HPN_14F] (H-DPQQQYHRCQRRCQTQEQSPERQRQCQQRCERQYKE-OH; disulfide 9-30, 13-26 (inferred); N-terminus and C-terminus assumed) | 12 |  |  |  |  |  |
| CSCC[C@@H]1NC(=O)[C@@H]2CSSC[C@H](NC(=O)[C@H](CCC(=O)O)NC(=O)[C@H](CCCNC(=N)N)NC(=O)[C@H](CCCNC(=N)N)NC(=O)[C@@H](NC(=O)[C@H](CCC(=O)O)NC(=O)[C@H](CCCCN)NC(=O)CNC(=O)CNC(=O)CNC(=O)CNC(=O)[C@@H](N)Cc3c[nH]cn3)CSSC[C@@H](C(=O)N[C@@H](CCC(=O)O)C(=O)N[C@@H](Cc3c[nH]c4ccccc34)C(=O)N[C@@H](CCCNC(=N)N)C(=O)N[C@@H](CCCNC(=N)N)C(=O)N[C@@H](Cc3c[nH]cn3)C(=O)N[C@@H](CCC(=O)O)C(=O)O)NC(=O)[C@H](CCC(N)=O)NC(=O)[C@H](CCCNC(=N)N)NC1=O)C(=O)N[C@@H](CCCNC(=N)N)C(=O)NCC(=O)N[C@@H](Cc1ccc(O)cc1)C(=O)N[C@@H](CCCNC(=N)N)C(=O)N[C@@H](CC(=O)O)C(=O)N[C@@H](CCC(=O)O)C(=O)N1CCC[C@H]1C(=O)N[C@@H](Cc1c[nH]c3ccccc13)C(=O)N[C@@H](CCCNC(=N)N)C(=O)N[C@@H](CCCCN)C(=O)N[C@@H](CCC(N)=O)C(=O)N[C@@H](CCC(=O)O)C(=O)N2 [Osa_HPN_86B] (H-HGGGGKECRRECRGYRDEPWRKQECMRQCEWRRHE-OH; disulfide 8-29, 12-25 (inferred); N-terminus and C-terminus assumed) | 8 |  |  |  |  | IC50 (Candida albicans): 9 µM; IC50 [1]: 13 µM; IC50 (Fusarium graminearum): 18 µM |
| CSCC[C@@H]1NC(=O)[C@H](CC(C)C)NC(=O)[C@@H]2CSSC[C@H](NC(=O)[C@H](CCCNC(=N)N)NC(=O)[C@H](CCC(=O)O)NC(=O)[C@H](CCCNC(=N)N)NC(=O)[C@@H](NC(=O)[C@H](CCCCN)NC(=O)[C@H](CCCNC(=N)N)NC(=O)[C@H](CCCNC(=N)N)NC(=O)CNC(=O)[C@H](CCC(=O)O)NC(=O)CN)CSSC[C@@H](C(=O)N[C@@H](CCCCN)C(=O)N[C@@H](CO)C(=O)N[C@@H](CCCNC(=N)N)C(=O)N[C@@H](CCC(=O)O)C(=O)N[C@@H](CCC(N)=O)C(=O)N[C@@H](CCC(=O)O)C(=O)O)NC(=O)[C@H](CC(=O)O)NC1=O)C(=O)N[C@@H](CCC(=O)O)C(=O)N[C@@H](CCCNC(=N)N)C(=O)N[C@@H](Cc1c[nH]cn1)C(=O)N[C@@H](Cc1c[nH]cn1)C(=O)N[C@@H](CCCNC(=N)N)C(=O)NCC(=O)NCC(=O)N[C@@H](CC(=O)O)C(=O)N[C@@H](Cc1c[nH]c3ccccc13)C(=O)N[C@@H](Cc1c[nH]c3ccccc13)C(=O)N[C@@H](CCC(=O)O)C(=O)N[C@@H](CCCCN)C(=O)N[C@@H](CCC(N)=O)C(=O)N[C@@H](CCCNC(=N)N)C(=O)N2 [Sbi_HPN_104C] (H-GEGRRKCRERCERHHRGGDWWEKQRCLMDCKSREQE-OH; disulfide 7-30, 11-26 (inferred); N-terminus and C-terminus assumed) | > 20 |  |  |  |  | IC50 (Candida albicans): 7 µM; IC50 [1]: 16 µM; IC50 (Fusarium graminearum): 7 µM |
| CC(C)[C@@H]1NC(=O)[C@@H]2CSSC[C@H](NC(=O)[C@H](CCC(N)=O)NC(=O)[C@H](CCCCN)NC(=O)[C@H](CCC(N)=O)NC(=O)[C@@H](NC(=O)[C@H](CCCNC(=N)N)NC(=O)[C@@H](N)CC(=O)O)CSSC[C@@H](C(=O)N[C@@H](CCCNC(=N)N)C(=O)N[C@@H](CCCNC(=N)N)C(=O)NCC(=O)N[C@@H](CCCNC(=N)N)C(=O)NCC(=O)N[C@@H](CO)C(=O)O)NC(=O)[C@H](CC(=O)O)NC(=O)[C@H](CCCNC(=N)N)NC1=O)C(=O)N[C@@H](CCC(N)=O)C(=O)N[C@@H](Cc1c[nH]cn1)C(=O)N[C@@H](Cc1ccc(O)cc1)C(=O)N[C@@H](CO)C(=O)N[C@@H](CC(=O)O)C(=O)N[C@@H](Cc1c[nH]c3ccccc13)C(=O)N[C@@H](CC(=O)O)C(=O)N[C@@H](CCCCN)C(=O)N[C@@H](CCCCN)C(=O)N[C@@H](CCC(N)=O)C(=O)N[C@@H](CCC(N)=O)C(=O)N2 [Sbi_HPN_104I] (H-DRCQKQCQHYSDWDKKQQCVRDCRRGRGS-OH; disulfide 3-23, 7-19 (inferred); N-terminus and C-terminus assumed) | > 20 |  |  |  |  |  |
| EcAMP1: α-hairpinin peptide, SEQ ID NO:36, produced recombinantly in E. coli (GSGRGSCRSQCMRRHEDEPWRVQECVSQCRRRRGGGD; EcAMP1 Echinochloa crus-galli) | 8 |  |  |  |  | IC50 (Candida albicans; read-out: IC50 C. alb): 8 µM; IC50 ([1]; read-out: IC50 Cgr): 20 µM; IC50 (Fusarium graminearum; read-out: IC50 Fgr): 7 µM |
| HXL001: Class I permeabilizing defensin, mature protein SEQ ID NO:25 (RHCLSQSHRFKGLCMSSNNCANVCQTENFPGGECKAEGATRKCFCKKIC; HXL001 Zea Mays) |  | 0.9 | 300 |  |  |  |
| HXL002: permeabilizing defensin, mature protein SEQ ID NO:26 (RDCLSQSHKFKGACLSSSNCAAVCRTENFPDGECHTHNFARKCFCKRAC; HXL002 Triticum aestivum) |  | 1.0 | 320 | 0.9 | 260 |  |
| HXL004: Class I permeabilizing defensin, mature protein SEQ ID NO:27 (RTCESQSHRFKGLCFSRSNCASVCHTEGFNGGHCRGFRRRCFCTRHC; HXL004 Nicotiana benthamiana) |  | 1.6 | 500 |  |  |  |
| HXL007: permeabilizing defensin, mature protein SEQ ID NO:28 (RTCESLADTYRGPCFTDGSCDDHCKNKEHLISGRCRNDFRCWCTRNC; HXL007 Cyamopsis tetragonoloba) |  |  |  | 1.2 | 350 |  |
| HXL008: Class I permeabilizing defensin, mature protein SEQ ID NO:29 (KVCTKPSKFFKGLCGTDGACTTACRKEGLHSGYCQLKGFLNSVCVCRKHC; HXL008 Picramnia pentandra) |  | 0.9 | 300 | 0.8 | 225 |  |
| HXL013: Class I permeabilizing defensin, mature protein SEQ ID NO:30 (KDCLTRRHGFQGRCLFDRQCAHVCRSDGFIGGQCRGPLRKCFCSRPC; HXL013 Glycine max) |  | 1.4 | 450 |  |  |  |
| HXP4: synthetic (artificial) defensin variant, SEQ ID NO:8 (RECKTESHRFKGPCITKPPCRKACISEKFTDGHCSKILRRCLCTKPC; HXP4 protein) |  | 1.3 | 400 | 0.7 | 220 |  |
| Hordothionin [reference compound] |  | 0.4 | 120 |  |  |  |
| NaD1: Class II Solanaceous defensin from flowers of ornamental tobacco Nicotiana alata (Q8GTM0) (RECKTESNTFPGICITKPPCRKACISEKFTDGHCSKILRRCLCTKPC; UniProt Q8GTM0 26-72, looked up) |  | 1.0 | 320 | 1.0 | 300 |  |
| RsAFP2: defensin compared in the Fgr permeabilization assay (QKLCQRPSGTWSGVCGNNNACKNQCIRLEKARHGSCNYVFPAHKCICYFPC; UniProt P30230 30-80, looked up) [reference compound] |  | 0.3 | 100 |  |  |  |
